This note sets out measurements from patent US20030162783A1 (priority 1999, published 2003).

Some results are limits rather than exact numbers.

Series [1] concerns the target T1, NMDA receptor glycine site (Rattus norvegicus, UniProt P35439).
T1 construct: brain membranes bearing the receptor; tissue Analytical Biological Services Inc; host or cells: rat brain membranes (cerebral cortex and hippocampus, male Sprague Dawley rats)
The series is described as follows: Test A: Inhibition of binding of [3H]-MDL105,519 to brain membranes. The settings on record: [3H]MDL105,519 1.2 nM, brain membranes (rat and human membranes described; table does not say which). An excerpt: Test A: Inhibition of Binding of [^3H]-MDL105,519:
Binding of compounds to the NMDA receptor glycine site may be assessed by measuring the ability of test compounds to inhibit the binding of tritiated MDL105,519 to brain membranes bearing the receptor.
Briefly, fresh brain tissue including cerebral cortex and hippocampus from male Sprague Dawley rats was homogenized in 0.32 M sucrose and centrifuged at low speed to separate cellular membranes from other cellular components. The membranes were then washed 3 times using deionized water, followed by treatment with 0.04% Triton X-100. Finally, membranes were washed six times in 50 mM Tris citrate buffer, pH 7.4, and frozen at −80° C. until use.
[^3H]MDL105,519 (72 Ci/mmol) was purchased from Amersham. Cold MDL105,519 was purchased from Sigma/RBI. […] On the day of the experiment, brain membranes were thawed at room temperature and suspended in 50 mM tris acetate buffer, pH 7.4 (“TAB”). Seventy-five micro grams per milliliter protein (by using the BioRad dye) were used for competition binding. The experiments were carried out using 96-well plates. […] Non specific binding was determined by using 100 μM of unlabeled MDL105,519. […] After incubation, unbound [^3H]MDL105,519 was removed by filtration onto GF/B Unifilter plates using a Packard harvester. Filters were washed four times with ice cold TAB (total of 1.2 mL buffer). The plates were dried overnight at room temperature and bound radioactivity was measured on a Packard TopCount after the addition of 45 μL per well of the MICROSCINT O.
Human brain membranes were obtained from Analytical Biological Services Inc., and assays were performed as described for rat membranes.
Data was analyzed using a Microsoft Excel spreadsheet and GraphPad Prizm software and potency of compounds is expressed as the Ki (nM).

In series [2] the test system is Chronic Constriction Injury (CCI) rats, thermal hyperalgesia. The series is described as follows: Test C: Neuropathic pain model (Chronic Constriction Injury), thermal hyperalgesia paw-withdrawal. Type of series: in vivo. The settings on record: Rattus norvegicus; for inhibition in vivo at 30 mg/kg/day / inhibition in vivo at 15 mg/kg/day: oral t.i.d., read-out: Test C (% Inh.): percent decrease in hyperalgesia at the MED; for minimal effective dose: po, 120 h, orally three times daily for 5 days, read-out: Test C MED (minimum effective dose). From the text: Test C: Neuropathic Pain Model (Chronic Constriction Injury):
(Mean of vehicle group−Mean of compound group)/(Mean of vehicle group)×100

In series [3] the test system is formalin-induced nociceptive behaviors in rats. The series is described as follows: Test B: Formalin test (formalin-induced nociceptive behaviors, paw flinches). The settings on record: dosed three hours prior to formalin; for Test B First phase Dose (% Inh.): % inhibition of nociceptive response: first phase (0-5 min); for Test B Second phase Dose (% Inh.): % inhibition of nociceptive response: second phase (20-35 min). Type of series: in vivo, rat. As to the method:
In the test, two distinctive phases of formalin-induced behaviors are observed. A first phase response, caused by acute nociception to the noxious chemical (formalin) injected into the paw, occurs between zero and five minutes. […] After the quiescent period a second phase response, caused by sensitization of the central neurons in the dorsal horn, occurs after 15 minutes and lasts up to 60 minutes. Sensitization of the central neurons in the spine augments a noxious afferent input and causes a stronger pain barrage to be transmitted to the brain. Therefore, inhibition of the second phase response indicates a central mechanism of drug action.
The procedure for the formalin test is as follows: male rats are placed in a plexiglass chamber and observed for 30-45 min. to observe their baseline activity. Animals are either pretreated with vehicle or with different doses of a test compound. Animals are dosed with vehicle or test compound three hours prior to injection of 0.05 mL of sterile 1% formalin under the dorsal skin of a hind paw. The number of paw flinches (responses) during the first phase (0-5 min.) and the second phase (20-35 min.) are scored and recorded. Flinch response is compared with the mean score of a saline control group and calculated as percentage inhibition. […] First phase responses may be inhibited by compounds that act peripherally and by compounds that act centrally.
Student's t-test was used for statistical analysis to determine the significance of compound effects. Data are reported as a dose that yielded a % inhibition of a response.

By Ki is commonly meant the equilibrium dissociation constant of an inhibitor or competing ligand from its target. Read a low Ki as higher affinity. On to `O=c1c2ccc(Cl)cc2[nH]c2c(O)nn(Cc3ccncn3)c(=O)c12`, for which, in series [1], the affinity, expressed as Ki, was 513 nM.
Turning to `CS(=O)(=O)O.O=c1c2ccc(Cl)cc2[nH]c2c(O)nn(Cc3ccncc3)c(=O)c12` [Ex. 1, 7-Chloro-4-hydroxy-2-(4-pyridylmethyl)-1,2,5,10-tetrahydropyridazino[4,5-b]quinoline-1,10-dione methanesulfonate], in series [2], the inhibition in vivo at 30 mg/kg/day came out at 71% and the minimal effective dose was 30 mg/kg/day. Moreover, in series [3] (dose 70 (dose unit not given)), the “Test B First phase Dose (% Inh.): % inhibition of nociceptive response” value is 70 (52%) and the “Test B Second phase Dose (% Inh.): % inhibition of nociceptive response” value is 70 (57%).
In the case of `CS(=O)(=O)O.O=c1c2ccc(Cl)cc2[nH]c2c(O)nn(Cc3cccnc3)c(=O)c12` [Ex. 2, 7-Chloro-4-hydroxy-2-(3-pyridylmethyl)-1,2,5,10-tetrahydropyridazino[4,5-b]quinoline-1,10-dione Methanesulfonate], in series [2], the inhibition in vivo at 30 mg/kg/day came to 59% and the minimal effective dose turned out to be 30 mg/kg/day. Further, in series [3] (dose 200 (dose unit not given)), the “Test B First phase Dose (% Inh.): % inhibition of nociceptive response” value is 200 (74%) and the “Test B Second phase Dose (% Inh.): % inhibition of nociceptive response” value is given as 200 (71%).
In the case of `O=c1c2ccc(Cl)cc2[nH]c2c(O)nn(Cc3cc4ccccc4o3)c(=O)c12` [Ex. 4, 7-Chloro-4-hydroxy-2-benzo[d]furan-2-ylmethyl-1,2,5,10-tetrahydropyridazino[4,5-b]quinoline-1,10-dione], in series [2], the inhibition in vivo at 30 mg/kg/day worked out at 44% and the minimal effective dose came to 30 mg/kg/day.
With `O=c1c2ccc(Cl)cc2[nH]c2c(O)nn(Cc3ccnc4ccccc34)c(=O)c12` [Ex. 5, 7-Chloro-4-hydroxy-2-(quinolin-4-ylmethyl)-1,2,5,10-tetrahydropyridazino[4,5-b]quinoline-1,10-dione], the inhibitory constant (Ki) in series [1] was determined as 371 nM.
As to `CS(=O)(=O)O.O=c1c2ccc(Cl)cc2[nH]c2c(O)nn(Cc3cnccn3)c(=O)c12` [Ex. 6, 7-Chloro-4-hydroxy-2-(pyrazin-2-ylmethyl)-1,2,5,10-tetrahydropyridazino[4,5-b]quinoline-1,10-dione methanesulfonate], in series [2], the inhibition in vivo at 30 mg/kg/day is 64% and the minimal effective dose is 30 mg/kg/day.
One may read the melting point as the temperature of the solid-liquid transition. Regarding `O=c1c2ccc(Cl)cc2[nH]c2c(O)nn(Cc3ccco3)c(=O)c12` [Ex. 9, 7-Chloro-4hydroxy-2-(furan-2-ylmethyl)-1 2,5,10-tetrahydropyridazino[4,5-b]quinoline-1,10-dione], the melting point was > 265 °C. In addition, in series [2], the inhibition in vivo at 15 mg/kg/day was 77% and the minimal effective dose worked out at 15 mg/kg/day. This molecule also showed a Ki in series [1] of 61 nM. Besides, in series [3] (dose 200 (dose unit not given)), the “Test B First phase Dose (% Inh.): % inhibition of nociceptive response” value is listed as 200 (56%) and the “Test B Second phase Dose (% Inh.): % inhibition of nociceptive response” value was 200 (46%).
For the molecule `O=c1c2ccc(Cl)cc2[nH]c2c(O)nn(Cc3cccs3)c(=O)c12` [Ex. 11, 7-Chloro-4-hydroxy-2-(thien-2-ylmethyl)-1,2,5,10-tetrahydropyridazino[4,5-b]quinoline-1,10dione], in series [2], the inhibition in vivo at 15 mg/kg/day is -17% and the minimal effective dose came to 15 mg/kg/day.
Taken in the same sequence, the figures for `O=c1c2ccc(Cl)cc2[nH]c2c(O)nn(Cc3ccsc3)c(=O)c12` [Ex. 12, 7-Chloro-4-hydroxy-2-(thien-3-ylmethyl)-1,2,5,10-tetrahydropyridazino[4,5-b]quinoline-1,10-dione] were 17% and 15 mg/kg/day.
For `O=c1c2ccc(Cl)cc2[nH]c2c(O)nn(Cc3cc4ccccc4s3)c(=O)c12` [Ex. 13, 7-Chloro-4-hydroxy-2-(benzo[b]thien-2-ylmethyl)-1,2,5,10-tetrahydropyridazino[4,5-b]quinoline-1,10-dione] the same measures were 1% and 15 mg/kg/day.
On to `O=c1c2ccc(Cl)cc2[nH]c2c(O)nn(Cc3ncc[nH]3)c(=O)c12` [Ex. 15, 7-Chloro-4-hydroxy-2-(imidazol-2-ylmethyl)-1,2,5,10-tetrahydropyridazino[4,5-b]quinoline-1,10-dione], for which the affinity in series [1] corresponds to a Ki of 103 nM.
